Laboratory results: ChEMBL document CHEMBL5620353, “Novel antifungal triazoles with alkynyl-methoxyl side chains: Design, synthesis, and biological activity evaluation” (Eur J Med Chem, 2023)
In brackets after ≈: the same amount, converted by molar mass.

Experiments:
Format in all cases: functional
Candida albicans [1] = experiment: Antifungal activity against Candida albicans SC5314 assessed as inhibition of fungal growth incubated for 48 hrs by microbroth dilution method
Candida albicans [2] = experiment: Antifungal activity against Candida albicans 10231 assessed as inhibition of fungal growth incubated for 48 hrs by microbroth dilution method
Nakaseomyces glabratus [3] = experiment: Antifungal activity against Candida glabrata 537 assessed as inhibition of fungal growth incubated for 48 hrs by microbroth dilution method
Candida parapsilosis = experiment: Antifungal activity against Candida parapsilosis 22019 assessed as inhibition of fungal growth incubated for 48 hrs by microbroth dilution method; conditions: Lodderomyces parapsilosis
Pichia kudriavzevii = experiment: Antifungal activity against Candida krusei 4996 assessed as inhibition of fungal growth incubated for 48 hrs by microbroth dilution method
Candida tropicalis = experiment: Antifungal activity against Candida tropicalis 8915 assessed as inhibition of fungal growth incubated for 48 hrs by microbroth dilution method
Cryptococcus neoformans = experiment: Antifungal activity against Cryptococcus neoformans 32,609 assessed as inhibition of fungal growth incubated for 72 hrs by microbroth dilution method
Aspergillus fumigatus = experiment: Antifungal activity against Aspergillus fumigatus 7544 assessed as inhibition of fungal growth incubated for 72 hrs by microbroth dilution method
Nakaseomyces glabratus [4] = experiment: Potency index, ratio of fluconazole MIC to test compound MIC for antifungal activity against Candida glabrata 537 assessed as inhibition of fungal growth incubated for 48 hrs by microbroth dilution method
Candida albicans [5] = experiment: Antifungal activity against fluconazole-resistant Candida albicans 901 assessed as inhibition of fungal growth incubated for 48 hrs by microbroth dilution method
Candida albicans [6] = experiment: Antifungal activity against fluconazole-resistant Candida albicans 904 assessed as inhibition of fungal growth incubated for 48 hrs by microbroth dilution method
[Candida] auris [7] = Antifungal activity against fluconazole-resistant Candida auris 891 assessed as inhibition of fungal growth incubated for 48 hrs by microbroth dilution method; conditions: Candidozyma auris
[Candida] auris [8] = Antifungal activity against fluconazole-resistant Candida auris 918 assessed as inhibition of fungal growth incubated for 48 hrs by microbroth dilution method; conditions: Candidozyma auris
[Candida] auris [9] = Antifungal activity against fluconazole-resistant Candida auris 919 assessed as inhibition of fungal growth incubated for 48 hrs by microbroth dilution method; conditions: Candidozyma auris

C[C@@H](OCC#Cc1cccc(F)c1)[C@](O)(Cn1cncn1)c1ccc(F)cc1F
MIC (Candida albicans [1]): ≤ 0.125 µg/mL | MIC (Candida albicans [2]): 16 µg/mL (≈ 39.9 µM) | MIC (Nakaseomyces glabratus [3]): ≤ 0.125 µg/mL | MIC (Candida parapsilosis): 1 µg/mL (≈ 2.49 µM) | MIC (Pichia kudriavzevii): 16 µg/mL (≈ 39.9 µM) | MIC (Candida tropicalis): 32 µg/mL (≈ 79.7 µM) | MIC (Cryptococcus neoformans): 1 µg/mL (≈ 2.49 µM) | MIC (Aspergillus fumigatus): 1 µg/mL (≈ 2.49 µM) | Ratio (Nakaseomyces glabratus [4]): >=8

C[C@@H](OCC#Cc1ccc(OC(F)(F)F)cc1)[C@](O)(Cn1cncn1)c1ccc(F)cc1F
MIC (Candida albicans [1]): 4 µg/mL (≈ 8.56 µM) | MIC (Candida albicans [2]): 32 µg/mL (≈ 68.5 µM) | MIC (Nakaseomyces glabratus [3]): 2 µg/mL (≈ 4.28 µM) | MIC (Candida parapsilosis): 16 µg/mL (≈ 34.2 µM) | MIC (Pichia kudriavzevii): 64 µg/mL (≈ 137 µM) | MIC (Candida tropicalis): 32 µg/mL (≈ 68.5 µM) | MIC (Cryptococcus neoformans): 4 µg/mL (≈ 8.56 µM) | MIC (Aspergillus fumigatus): 8 µg/mL (≈ 17.1 µM)

C[C@@H](OCC#Cc1c(F)cccc1F)[C@](O)(Cn1cncn1)c1ccc(F)cc1F
MIC (Candida albicans [1]): ≤ 0.125 µg/mL | MIC (Candida albicans [2]): 16 µg/mL (≈ 38.2 µM) | MIC (Nakaseomyces glabratus [3]): 0.25 µg/mL (≈ 0.596 µM) | MIC (Candida parapsilosis): 0.5 µg/mL (≈ 1.19 µM) | MIC (Pichia kudriavzevii): 4 µg/mL (≈ 9.54 µM) | MIC (Candida tropicalis): 64 µg/mL (≈ 153 µM) | MIC (Cryptococcus neoformans): ≤ 0.125 µg/mL | MIC (Aspergillus fumigatus): 1 µg/mL (≈ 2.38 µM)

C[C@@H](OCC#Cc1ccc(F)cc1)[C@](O)(Cn1cncn1)c1ccc(F)cc1F
MIC (Candida albicans [1]): ≤ 0.125 µg/mL | MIC (Candida albicans [2]): 8 µg/mL (≈ 19.9 µM) | MIC (Nakaseomyces glabratus [3]): ≤ 0.125 µg/mL | MIC (Candida parapsilosis): 1 µg/mL (≈ 2.49 µM) | MIC (Pichia kudriavzevii): 8 µg/mL (≈ 19.9 µM) | MIC (Candida tropicalis): 64 µg/mL (≈ 159 µM) | MIC (Cryptococcus neoformans): 0.5 µg/mL (≈ 1.25 µM) | MIC (Aspergillus fumigatus): 1 µg/mL (≈ 2.49 µM) | Ratio (Nakaseomyces glabratus [4]): >=8 | MIC (Candida albicans [5]): 64 µg/mL (≈ 159 µM) | MIC (Candida albicans [6]): 32 µg/mL (≈ 79.7 µM) | MIC ([Candida] auris [7]): 16 µg/mL (≈ 39.9 µM) | MIC ([Candida] auris [8]): 16 µg/mL (≈ 39.9 µM) | MIC ([Candida] auris [9]): 16 µg/mL (≈ 39.9 µM)

Cc1cccc(C#CCO[C@H](C)[C@](O)(Cn2cncn2)c2ccc(F)cc2F)c1
MIC (Candida albicans [1]): 0.5 µg/mL (≈ 1.26 µM) | MIC (Candida albicans [2]): 8 µg/mL (≈ 20.1 µM) | MIC (Nakaseomyces glabratus [3]): 0.25 µg/mL (≈ 0.629 µM) | MIC (Candida parapsilosis): 0.5 µg/mL (≈ 1.26 µM) | MIC (Pichia kudriavzevii): 32 µg/mL (≈ 80.5 µM) | MIC (Candida tropicalis): 64 µg/mL (≈ 161 µM) | MIC (Cryptococcus neoformans): 4 µg/mL (≈ 10.1 µM) | MIC (Aspergillus fumigatus): 1 µg/mL (≈ 2.52 µM)

C[C@@H](OCC#Cc1cc(F)ccc1F)[C@](O)(Cn1cncn1)c1ccc(F)cc1F
MIC (Candida albicans [1]): ≤ 0.125 µg/mL | MIC (Candida albicans [2]): 8 µg/mL (≈ 19.1 µM) | MIC (Nakaseomyces glabratus [3]): ≤ 0.125 µg/mL | MIC (Candida parapsilosis): 2 µg/mL (≈ 4.77 µM) | MIC (Pichia kudriavzevii): 8 µg/mL (≈ 19.1 µM) | MIC (Candida tropicalis): 8 µg/mL (≈ 19.1 µM) | MIC (Cryptococcus neoformans): 1 µg/mL (≈ 2.38 µM) | MIC (Aspergillus fumigatus): 2 µg/mL (≈ 4.77 µM) | Ratio (Nakaseomyces glabratus [4]): >=8

Cc1ccccc1C#CCO[C@H](C)[C@](O)(Cn1cncn1)c1ccc(F)cc1F
MIC (Candida albicans [1]): 0.25 µg/mL (≈ 0.629 µM) | MIC (Candida albicans [2]): 8 µg/mL (≈ 20.1 µM) | MIC (Nakaseomyces glabratus [3]): 0.25 µg/mL (≈ 0.629 µM) | MIC (Candida parapsilosis): 4 µg/mL (≈ 10.1 µM) | MIC (Pichia kudriavzevii): 16 µg/mL (≈ 40.3 µM) | MIC (Candida tropicalis): 32 µg/mL (≈ 80.5 µM) | MIC (Cryptococcus neoformans): 1 µg/mL (≈ 2.52 µM) | MIC (Aspergillus fumigatus): 4 µg/mL (≈ 10.1 µM)

C[C@@H](OCC#Cc1ccc(Cl)cc1)[C@](O)(Cn1cncn1)c1ccc(F)cc1F
MIC (Candida albicans [1]): ≤ 0.125 µg/mL | MIC (Candida albicans [2]): 16 µg/mL (≈ 38.3 µM) | MIC (Nakaseomyces glabratus [3]): ≤ 0.125 µg/mL | MIC (Candida parapsilosis): 0.5 µg/mL (≈ 1.2 µM) | MIC (Pichia kudriavzevii): 16 µg/mL (≈ 38.3 µM) | MIC (Candida tropicalis): ≤ 0.125 µg/mL | MIC (Cryptococcus neoformans): 1 µg/mL (≈ 2.39 µM) | MIC (Aspergillus fumigatus): 4 µg/mL (≈ 9.57 µM) | Ratio (Nakaseomyces glabratus [4]): >=8 | MIC (Candida albicans [5]): 32 µg/mL (≈ 76.6 µM) | MIC (Candida albicans [6]): 32 µg/mL (≈ 76.6 µM) | MIC ([Candida] auris [7]): 4 µg/mL (≈ 9.57 µM) | MIC ([Candida] auris [8]): 16 µg/mL (≈ 38.3 µM) | MIC ([Candida] auris [9]): 8 µg/mL (≈ 19.1 µM)

C[C@@H](OCC#Cc1cccc(F)c1F)[C@](O)(Cn1cncn1)c1ccc(F)cc1F
MIC (Candida albicans [1]): ≤ 0.125 µg/mL | MIC (Candida albicans [2]): 16 µg/mL (≈ 38.2 µM) | MIC (Nakaseomyces glabratus [3]): ≤ 0.125 µg/mL | MIC (Candida parapsilosis): 1 µg/mL (≈ 2.38 µM) | MIC (Pichia kudriavzevii): 8 µg/mL (≈ 19.1 µM) | MIC (Candida tropicalis): 32 µg/mL (≈ 76.3 µM) | MIC (Cryptococcus neoformans): 1 µg/mL (≈ 2.38 µM) | MIC (Aspergillus fumigatus): 8 µg/mL (≈ 19.1 µM) | Ratio (Nakaseomyces glabratus [4]): >=8

C[C@@H](OCC#Cc1cccnc1)[C@](O)(Cn1cncn1)c1ccc(F)cc1F
MIC (Candida albicans [1]): ≤ 0.125 µg/mL | MIC (Candida albicans [2]): 32 µg/mL (≈ 83.2 µM) | MIC (Nakaseomyces glabratus [3]): ≤ 0.125 µg/mL | MIC (Candida parapsilosis): ≤ 0.125 µg/mL | MIC (Pichia kudriavzevii): 4 µg/mL (≈ 10.4 µM) | MIC (Candida tropicalis): 64 µg/mL (≈ 166 µM) | MIC (Cryptococcus neoformans): ≤ 0.125 µg/mL | MIC (Aspergillus fumigatus): 4 µg/mL (≈ 10.4 µM) | Ratio (Nakaseomyces glabratus [4]): >=8

C[C@@H](OCC#Cc1c(Cl)cccc1Cl)[C@](O)(Cn1cncn1)c1ccc(F)cc1F
MIC (Candida albicans [1]): 0.25 µg/mL (≈ 0.553 µM) | MIC (Candida albicans [2]): > 64 µg/mL | MIC (Nakaseomyces glabratus [3]): 0.25 µg/mL (≈ 0.553 µM) | MIC (Candida parapsilosis): 4 µg/mL (≈ 8.84 µM) | MIC (Pichia kudriavzevii): 16 µg/mL (≈ 35.4 µM) | MIC (Candida tropicalis): > 64 µg/mL | MIC (Cryptococcus neoformans): ≤ 0.125 µg/mL | MIC (Aspergillus fumigatus): 4 µg/mL (≈ 8.84 µM)

C[C@@H](OCC#Cc1ccc(Cl)cc1Cl)[C@](O)(Cn1cncn1)c1ccc(F)cc1F
MIC (Candida albicans [1]): ≤ 0.125 µg/mL | MIC (Candida albicans [2]): 32 µg/mL (≈ 70.8 µM) | MIC (Nakaseomyces glabratus [3]): 0.25 µg/mL (≈ 0.553 µM) | MIC (Candida parapsilosis): 4 µg/mL (≈ 8.84 µM) | MIC (Pichia kudriavzevii): 32 µg/mL (≈ 70.8 µM) | MIC (Candida tropicalis): 32 µg/mL (≈ 70.8 µM) | MIC (Cryptococcus neoformans): 2 µg/mL (≈ 4.42 µM) | MIC (Aspergillus fumigatus): 4 µg/mL (≈ 8.84 µM) | MIC (Candida albicans [5]): 64 µg/mL (≈ 142 µM) | MIC (Candida albicans [6]): 32 µg/mL (≈ 70.8 µM) | MIC ([Candida] auris [7]): 32 µg/mL (≈ 70.8 µM) | MIC ([Candida] auris [8]): 16 µg/mL (≈ 35.4 µM) | MIC ([Candida] auris [9]): 8 µg/mL (≈ 17.7 µM)
